In the case of `CC(=O)OCc1nc2c(N)nc3ccccc3c2n1CC(C)(C)O` [Example 635, [4-Amino-1-(2-hydroxy-2-methylpropyl)-1H-imidazo[4,5-c]quinolin-2-yl]methyl acetate], the melting point lay in the range of 203 to 205 °C. For the molecule `CC(C)[C@H](N)C(=O)OCc1nc2c(N)nc3ccccc3c2n1CC(C)(C)O` [Example 636, [4-Amino-1-(2-hydroxy-2-methylpropyl)-1H-imidazo[4,5-c]quinolin-2-yl]methyl L-valinate], the melting point is 190 to 192 °C.

These data come from patent publication US8846710B2, “Method of preferentially inducing the biosynthesis of interferon” (3M Innovative Properties Company, priority 2005, dated 2014).
